The values below are quoted from earlier work in patent EP3315966A1, “STANDARD THYROID GLAND HORMONE SOLUTION” (Fujirebio Inc., priority 2015, dated 2017).

The conditions of this series: buffer substance of the standard solution.

For the compound `O=S(=O)(O)CCCNC1CCCCC1` [CAPS, N-cyclohexyl-3-aminopropanesulfonic acid], the pKa is given as 10.4.

For orientation: pKa means the pH at which an ionisable group is half protonated.
